Measured values published in paper PMC7419465, “Response and Adherence to Nilotinib in Daily practice (RAND study): an in-depth observational study of chronic myeloid leukemia patients treated with nilotinib” (European Journal of Clinical Pharmacology, 2020).
Where “and” joins values, the source holds several entries; their conditions need not be identical. Equal entries are not always repeated. Where two headings read alike, the source gives them in different places.

How the values were obtained:
[1] = system: BCR-ABL transcript level; parameters: method as in PMID 26837842; conditions: 5-year update of the ENESTnd trial, first-line; cited from earlier work
[2] = Nilotinib treatment discontinuation during the 12-month study period; assay type: in vivo, CP-CML patients; conditions: of 68 patients
From the text: In this multicenter prospective observational study, conducted between August 2013 and April 2017 in six Dutch hospitals, CP-CML patients using nilotinib were followed for 12 months. Initially, it was the aim only to include newly diagnosed CP-CML patients starting nilotinib treatment. […] The study was registered in the Netherlands Trial Register (NTR3992) and the protocol has been published previously.
Information on disease characteristics, medical history, co-medication, and nilotinib treatment was obtained from the patient’s medical file and pharmacy dispensing record.

[3] = Patient-reported side effects of nilotinib (questionnaire, 5-point Likert scale); assay type: in vivo, CP-CML patients
From the text: At study entry, patients completed a self-administered composite questionnaire including demographic characteristics (date of birth, gender, education, living status, and working status), use of St. John’s wort, use of grapefruit (juice), quality of life (Short Form-12 Health Survey [SF-12]), side effects, and beliefs about medication in general (Beliefs about Medicines Questionnaire [BMQ]-General) and specifically about nilotinib (BMQ-Specific). The questionnaire at 3, 6, and 12 months also included the MARS-5 and questions on nilotinib intake in relation to food intake, use of tools to prevent forgetting, illness perception (Brief Illness Perception Questionnaire [Brief IPQ]), and information satisfaction (Satisfaction with Information about Medicines Scale [SIMS])[51, 52]. Education was assessed as the highest level completed, and dichotomized into higher education (higher general secondary education or above) and lower education. Living status was categorized as living alone or not living alone, and work status as having paid work or not. Questions on side effects were based on literature data and concerned specific nilotinib toxicities occurring in > 10% of patients (headache, nausea, rash, itching, myalgia, fatigue). Answers were scored on a 5-point Likert scale (0 = not at all to 4 = very much). Symptoms scored as “3 = a lot” or “4 = very much” were considered “severe.”

[4] = Nilotinib trough plasma concentration (Cmin) from dried blood spot self-sampling; assay type: in vivo, CP-CML patients
Procedure: Blood sampling was performed by the patient at home by means of a validated dried blood spot (DBS) sampling method. Using the DBS, nilotinib plasma concentrations were calculated as previously reported. Patients were instructed to sample blood at predose at baseline (if already on nilotinib treatment), 3, 6, and 12 months from study entry. The time of blood sampling, time of last nilotinib intake, and body weight were recorded in patient diaries. Cmin samples were defined as those taken between 8 and 16 h after the prior dose.
Individual measures of exposure were obtained using averaged Cmin values for individual patients based on the measurements obtained at baseline, 3, 6, and 12 months. Intra-patient variability in nilotinib Cmin was analyzed in patients who had ≥ 2 analyzed samples available and expressed as the average coefficient of variation (CV%). Missing Cmin values were imputed with the mean of the observed Cmin values for the corresponding dose. Univariable linear regression was used to identify variables (one by one) related to nilotinib Cmin. GEE was used to identify whether the occurrence of side effects was related to observed nilotinib Cmin values (without imputation) obtained at baseline, 3, 6, and 12 months.

[5] = system: BCR-ABL transcript level; experiment: Molecular response (MMR, BCR-ABL transcript level ≤ 0.1% IS) to nilotinib treatment; assay type: in vivo, CP-CML patients
Procedure: The response was considered optimal when a MMR was achieved within 12 months of nilotinib treatment. MMR was defined as a BCR-ABL transcript level of ≤ 0.1% on the International Scale. For patients already on treatment at entry, the time until MMR was obtained retrospectively from their medical files.
Comparison of adherence (continuous) and Cmin values (either grouped into quartiles [Q1 vs. Q2–Q4] or based on a previously reported threshold concentration of 490 μg/L) among response groups (time to MMR after start of nilotinib treatment ≤ 12 months vs. > 12 months, stratified by line of treatment) was performed using Mann-Whitney tests and Fisher’s exact tests. Time to MMR was assessed using the Kaplan Meier method with logrank test. In these outcome analyses, the mean of each measure of adherence and Cmin values was used. For all analyses, a two-tailed significance level of 0.05 was used. p values below this level were considered statistically significant. All statistical analyses were performed using SPSS version 22 for Windows (IBM Corp, Armonk, NY, USA).

[6] = 42 patients with ≥ 2 analyzed samples
[7] = second/third-line nilotinib treatment

SMILES: Cc1cn(-c2cc(NC(=O)c3ccc(C)c(Nc4nccc(-c5cccnc5)n4)c3)cc(C(F)(F)F)c2)cn1 [nilotinib]
- 1-year MMR rate [1]: 55%
- number of patients who discontinued nilotinib treatment due to progression [2]: 4
- number of patients who discontinued nilotinib treatment due to side effects [2]: 6
- Fatigue, % of patients experiencing (any severity) [3]: About 75%
- Itching, % of patients reporting (any severity) [3]: 59%
- Myalgia, % of patients reporting (any severity) [3]: 54%
- Rash, % of patients reporting (any severity) [3]: 43%
- Fatigue, % mild ([3]; mild = a little bit/rather): 54.9%
- Headache, % mild ([3]; mild = a little bit/rather): 35.8%
- Itching, % mild ([3]; mild = a little bit/rather): 51.9%
- Myalgia, % mild ([3]; mild = a little bit/rather): 48.1%
- Nausea, % mild ([3]; mild = a little bit/rather): 20.4%
- Rash, % mild ([3]; mild = a little bit/rather): 35.2%
- Fatigue, % severe ([3]; severe = a lot/very much): 20% and 19.6%
- Headache, % severe ([3]; severe = a lot/very much): 1.9%
- Itching, % severe ([3]; severe = a lot/very much): 7.4%
- Myalgia, % severe ([3]; severe = a lot/very much): 6% and 5.8%
- Nausea, % severe ([3]; severe = a lot/very much): 1.9%
- Rash, % severe ([3]; severe = a lot/very much): 7.4%
- Observed nilotinib Cmin, mean ± SD ([4]; 150 mg BID (n = 15 samples)): 835 ± 412 µg/L
- Observed nilotinib Cmin, median (IQR) ([4]; 150 mg BID (n = 15 samples)): 656 (548–1042) μg/L
- Observed nilotinib Cmin, range ([4]; 150 mg BID (n = 15 samples)): 390 to 1793 µg/L
- Observed nilotinib Cmin, mean ± SD ([4]; 300 mg BID (n = 85 samples)): 1021 ± 472 µg/L
- Observed nilotinib Cmin, median (IQR) ([4]; 300 mg BID (n = 85 samples)): 954 (654–1274) μg/L
- Observed nilotinib Cmin, range ([4]; 300 mg BID (n = 85 samples)): 196 to 2413 µg/L
- Observed nilotinib Cmin, mean ± SD ([4]; 300 mg QD (n = 6 samples)): 567 ± 110 µg/L
- Observed nilotinib Cmin, median (IQR) ([4]; 300 mg QD (n = 6 samples)): 589 (450–658) μg/L
- Observed nilotinib Cmin, range ([4]; 300 mg QD (n = 6 samples)): 418 to 702 µg/L
- Observed nilotinib Cmin, mean ± SD ([4]; 400 mg BID (n = 25 samples)): 1497 ± 597 µg/L
- Observed nilotinib Cmin, median (IQR) ([4]; 400 mg BID (n = 25 samples)): 1253 (1054–2053) μg/L
- Observed nilotinib Cmin, range ([4]; 400 mg BID (n = 25 samples)): 342 to 2540 µg/L
- Observed nilotinib Cmin, mean ± SD ([4]; 400 mg QD (n = 6 samples)): 536 ± 57 µg/L
- Observed nilotinib Cmin, median (IQR) ([4]; 400 mg QD (n = 6 samples)): 552 (517–570) μg/L
- Observed nilotinib Cmin, range ([4]; 400 mg QD (n = 6 samples)): 422 to 574 µg/L
- intra-patient variability, %CV in Cmin (mean ± SD) [4, 6]: 25 ± 19%
- intra-patient variability, %CV in Cmin, median [4, 6]: 20%
- intra-patient variability, %CV in Cmin, range [4, 6]: 1–91%
- patients with nilotinib Cmin generally above the therapeutic target ([4]; in vivo): 95%
- range of Cmin values below the threshold concentration of 490 μg/L ([4]; nine patients): 196 to 467 µg/L
- patients with a Cmin below the threshold concentration of 490 μg/L at any time ([4]; nine patients of 56): 16%
- Cmin median (IQR) ([4]; patients reporting Fatigue: Mild (n = 72)): 974 (644–1373) μg/L
- Cmin median (IQR) ([4]; patients reporting Fatigue: None (n = 32)): 777 (561–1087) μg/L
- Cmin median (IQR) ([4]; patients reporting Fatigue: Severe (n = 25), p any .007, severe .023): 1160 (787–1468) μg/L
- Cmin median (IQR) ([4]; patients reporting Headache: Mild (n = 40)): 905 (625–1254) μg/L
- Cmin median (IQR) ([4]; patients reporting Headache: None (n = 91)): 970 (618–1288) μg/L
- Cmin median (IQR) ([4]; patients reporting Headache: Severe (n = 1)): 2413 µg/L
- Cmin median (IQR) ([4]; patients reporting Itching: Mild (n = 61)): 923 (740–1243) μg/L
- Cmin median (IQR) ([4]; patients reporting Itching: None (n = 61)): 954 (565–1283) μg/L
- Cmin median (IQR) ([4]; patients reporting Itching: Severe (n = 11), p severe .012): 1260 (1021–1800) μg/L
- Cmin median (IQR) ([4]; patients reporting Myalgia: Mild (n = 62)): 1031 (765–1380) μg/L
- Cmin median (IQR) ([4]; patients reporting Myalgia: None (n = 56)): 857 (574–1219) μg/L
- Cmin median (IQR) ([4]; patients reporting Myalgia: Severe (n = 12)): 840 (658–1553) μg/L
- Cmin median (IQR) ([4]; patients reporting Nausea: Mild (n = 27)): 1210 (750–1798) μg/L
- Cmin median (IQR) ([4]; patients reporting Nausea: None (n = 104)): 945 (615–1249) μg/L
- Cmin median (IQR) ([4]; patients reporting Nausea: Severe (n = 1)): 648 µg/L
- Cmin median (IQR) ([4]; patients reporting Rash: None (n = 75)): 964 (598–1338) μg/L
- Cmin median (IQR) ([4]; patients reporting Rash: Severe (n = 12)): 1157 (764–1540) μg/L
- 1-year MMR rate according to nilotinib Cmin ([5]; All patients, Cmin quartile Q1 (< 635 μg/L)): 56% (5/9)
- 1-year MMR rate according to nilotinib Cmin ([5]; All patients, Cmin quartile Q2 (Q2–Q3 635–< 1346 μg/L)): 88% (7/8)
- 1-year MMR rate according to nilotinib Cmin ([5]; All patients, Cmin quartile Q3 (Q2–Q3 635–< 1346 μg/L)): 75% (12/16)
- 1-year MMR rate according to nilotinib Cmin ([5]; All patients, Cmin quartile Q4 (≥ 1346 μg/L)): 30% (3/10)
- median time to MMR12 ([5]; Cmin quartile Q1, n = 5): 6.4 months
- median time to MMR12 ([5]; Cmin quartile Q2, n = 7): 6.7 months
- median time to MMR12 ([5]; Cmin quartile Q3, n = 12): 4.3 months
- median time to MMR12 ([5]; Cmin quartile Q4, n = 3): 2.8 months
- 1-year MMR rate according to nilotinib Cmin ([5]; Subpopulation 1A/1B (1st line treatment), Q1 (< 635 μg/L)): 71% (5/7)
- 1-year MMR rate according to nilotinib Cmin ([5]; Subpopulation 1A/1B (1st line treatment), Q2): 100% (5/5)
- 1-year MMR rate according to nilotinib Cmin ([5]; Subpopulation 1A/1B (1st line treatment), Q3): 73% (8/11)
- 1-year MMR rate according to nilotinib Cmin ([5]; Subpopulation 1A/1B (1st line treatment), Q4 (≥ 1346 μg/L)): 40% (2/5)
- 1-year MMR rate according to nilotinib Cmin ([5]; Subpopulation 2A/2B (≥ 2nd line treatment), Q1 (< 635 μg/L)): 0% (0/2)
- 1-year MMR rate according to nilotinib Cmin ([5]; Subpopulation 2A/2B (≥ 2nd line treatment), Q3): 80% (4/5)
- 1-year MMR rate according to nilotinib Cmin ([5]; Subpopulation 2A/2B (≥ 2nd line treatment), Q4 (≥ 1346 μg/L)): 20% (1/5)
- mean time to MMR12 ([5]; first-line nilotinib treatment): 5.9 ± 3.2 months
- median time to MMR12 ([5]; first-line nilotinib treatment): 6.1 months
- time to MMR12, range ([5]; first-line nilotinib treatment): 1.2–12.9 months
- 1-year MMR rate ([5]; first-line nilotinib treatment (subpopulations 1A/1B), 20/28): 71%
- overall 1-year MMR rate ([5]; range over lines of treatment): 47 to 71%
- mean time to MMR12 [5, 7]: 5.8 ± 4.4 months
- median time to MMR12 [5, 7]: 3.7 months
- time to MMR12, range [5, 7]: 2.6–12.4 months
- 1-year MMR rate ([5]; second/third-line nilotinib treatment (subpopulations 2A/2B), 7/15): 47%
